Results taken from patent US9388140B2, “Substituted benzimidazoles” (priority 2011, dated 2016).

Biological target: human kinase Mps-1 (Homo sapiens (Human), UniProt P33981)
Test: Mps-1 kinase assay (TR-FRET)
Assay type: biochemical
Conditions: N-terminally GST-tagged human full length recombinant Mps-1; 10 μM ATP; 1 μM biotinylated peptide substrate; read-out: Mps1 IC50
How it was run: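 Next, Eu-labelled anti-phospho(Ser/Thr) antibody and SA-XLent bind for 1 h at 22° C. Finally, energy transfer quantifies phosphorylated product.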

Sequence of human kinase Mps-1 (P33981 whole entry): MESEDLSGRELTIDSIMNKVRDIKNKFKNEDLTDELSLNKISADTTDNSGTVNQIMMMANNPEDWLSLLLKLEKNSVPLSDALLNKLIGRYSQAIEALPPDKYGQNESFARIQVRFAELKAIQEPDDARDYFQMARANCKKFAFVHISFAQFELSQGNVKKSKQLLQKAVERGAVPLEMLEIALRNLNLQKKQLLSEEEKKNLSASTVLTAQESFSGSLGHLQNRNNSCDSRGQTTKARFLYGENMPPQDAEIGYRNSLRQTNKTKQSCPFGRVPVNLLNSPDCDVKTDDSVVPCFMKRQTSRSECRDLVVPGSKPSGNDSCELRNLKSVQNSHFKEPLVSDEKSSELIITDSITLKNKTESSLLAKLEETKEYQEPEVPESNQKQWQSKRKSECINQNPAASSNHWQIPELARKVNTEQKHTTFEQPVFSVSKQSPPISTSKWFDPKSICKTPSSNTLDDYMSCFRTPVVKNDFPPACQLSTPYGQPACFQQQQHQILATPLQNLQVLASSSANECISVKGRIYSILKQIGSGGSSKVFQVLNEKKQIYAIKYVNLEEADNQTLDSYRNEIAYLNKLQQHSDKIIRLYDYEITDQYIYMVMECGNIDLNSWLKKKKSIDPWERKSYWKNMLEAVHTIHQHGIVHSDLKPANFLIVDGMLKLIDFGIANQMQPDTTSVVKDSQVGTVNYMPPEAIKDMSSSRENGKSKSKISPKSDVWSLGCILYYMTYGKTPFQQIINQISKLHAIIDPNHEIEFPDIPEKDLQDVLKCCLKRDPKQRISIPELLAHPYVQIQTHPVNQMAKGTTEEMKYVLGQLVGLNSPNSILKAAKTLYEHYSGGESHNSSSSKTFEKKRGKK

Row | Compound | IC50 [nM]
1 | COc1ccc(Oc2cc(NCC3CCOCC3)c3ncn(-c4ccc(C(=O)NC5CC5)c(C)c4)c3c2)c(SC)c1 [Example 116B, N-cyclopropyl-4-{6-[4-methoxy-2-(methylsulfanyl)phenoxy]-4-[(tetrahydro-2H-pyran-4-ylmethyl)amino]-1H-benzimidazol-1-yl}-2-methylbenzamide] | 2.9
2 | CCNC(=O)c1ccc(-n2cnc3c(NCC4CCOCC4)cc(Oc4ccc(O)cc4F)cc32)cc1C [Example 117A, N-ethyl-4-{6-(2-fluoro-4-hydroxyphenoxy)-4-[(tetrahydro-2H-pyran-4-ylmethyl)amino]-1H-benzimidazol-1-yl}-2-methylbenzamide] | 6.7
3 | CCNC(=O)c1ccc(-n2cnc3c(NCC4CCOCC4)cc(Oc4ccc(OC)cc4SC)cc32)cc1C [Example 117B, N-ethyl-4-[6-{4-methoxy-2-(methylsulfanyl)phenoxy]-4-[(tetrahydro-2H-pyran-4-ylmethyl)amino]-1H-benzimidazol-1-yl}-2-methylbenzamide] | 25.8
